Measured values: patent US20060167084A1, “Delta-9-THC compositions and methods for treating symptoms associated with multiple sclerosis” (Unimed Pharmaceuticals, Inc., priority 2003, published 2006)

Columns and labels:
[1] = tested on: spasticity related to multiple sclerosis; assay: Ashworth score of spasticity, randomized placebo-controlled MS study; assay type: in vivo, human; settings: baseline to 13 weeks' follow-up
[2] = tested on: patients with multiple sclerosis; assay: Patient assessment of treatment benefit at visit 8; assay type: in vivo, human
[3] = tested on: patients with multiple sclerosis; assay: Category-rating scales of symptoms (patient reported secondary outcomes); assay type: in vivo, human
[4] = tested on: patients with multiple sclerosis; assay: Timed 10 meter walk; assay type: in vivo, human; settings: baseline to follow-up (visit 7)
[5] = tested on: patients with multiple sclerosis; assay: Adverse events reported by patients

Structure (SMILES): CCCCCc1cc(O)c2c(c1)OC(C)(C)[C@@H]1CCC(C)=C[C@@H]21 [delta-9-THC, (6aR-trans)-6a,7,8,10a-tetrahydro-6,6,9-trimethyl-3-pentyl-6H-dibenzo>b,d!pyran-1-ol]
- Mean (SD) change in Ashworth score, lower-body muscle groups [1]: 1.39 (5.21)
- Mean (SD) change in Ashworth score, upper-body muscle groups [1]: 0.48 (4.70)
- Mean (SD) change in total Ashworth score (baseline minus follow-up) ([1]; all muscle groups): 1.86 (7.95)
- Symptom improvement Bladder: No, patients ([2]; visit 8, number of patients): 97
- Symptom improvement Bladder: Yes, patients ([2]; visit 8, number of patients): 67
- Symptom improvement Pain: No, patients ([2]; visit 8, number of patients): 64
- Symptom improvement Pain: Yes, patients ([2]; visit 8, number of patients): 64
- Symptom improvement Spasticity: No, patients ([2]; visit 8, number of patients): 73
- Symptom improvement Spasticity: Yes, patients ([2]; visit 8, number of patients): 108
- Symptom improvement Tremor: No, patients ([2]; visit 8, number of patients): 67
- Symptom improvement Tremor: Yes, patients ([2]; visit 8, number of patients): 44
- Symptom improvement Bladder: No ([2]; visit 8, percent of patients): (59%)
- Symptom improvement Bladder: Yes ([2]; visit 8, percent of patients): (40%)
- Symptom improvement Pain: No ([2]; visit 8, percent of patients): (50%)
- Symptom improvement Pain: Yes ([2]; visit 8, percent of patients): (50%)
- Symptom improvement Spasticity: No ([2]; visit 8, percent of patients): (40%)
- Symptom improvement Spasticity: Yes ([2]; visit 8, percent of patients): (60%)
- Symptom improvement Tremor: No ([2]; visit 8, percent of patients): (60%)
- Symptom improvement Tremor: Yes ([2]; visit 8, percent of patients): (40%)
- Depression: Deterioration, patients ([3]; number of patients): 42
- Depression: Improvement, patients ([3]; number of patients): 36
- Depression: Same, patients ([3]; number of patients): 47
- Energy: Deterioration, patients ([3]; number of patients): 49
- Energy: Improvement, patients ([3]; number of patients): 61
- Energy: Same, patients ([3]; number of patients): 63
- Irritability: Deterioration, patients ([3]; number of patients): 32
- Irritability: Improvement, patients ([3]; number of patients): 37
- Irritability: Same, patients ([3]; number of patients): 42
- Pain: Deterioration, patients ([3]; number of patients): 22
- Pain: Improvement, patients ([3]; number of patients): 64
- Pain: Same, patients ([3]; number of patients): 43
- Shake/tremor: Deterioration, patients ([3]; number of patients): 32
- Shake/tremor: Improvement, patients ([3]; number of patients): 52
- Shake/tremor: Same, patients ([3]; number of patients): 44
- Sleep: Deterioration, patients ([3]; number of patients): 24
- Sleep: Improvement, patients ([3]; number of patients): 71
- Sleep: Same, patients ([3]; number of patients): 57
- Spasms: Deterioration, patients ([3]; number of patients): 37
- Spasms: Improvement, patients ([3]; number of patients): 81
- Spasms: Same, patients ([3]; number of patients): 49
- Spasticity: Deterioration, patients ([3]; number of patients): 47
- Spasticity: Improvement, patients ([3]; number of patients): 89
- Spasticity: Same, patients ([3]; number of patients): 40
- Tiredness: Deterioration, patients ([3]; number of patients): 76
- Tiredness: Improvement, patients ([3]; number of patients): 35
- Tiredness: Same, patients ([3]; number of patients): 46
- Depression: Deterioration ([3]; percent of patients): (34%)
- Depression: Improvement ([3]; percent of patients): (29%)
- Depression: Same ([3]; percent of patients): (38%)
- Energy: Deterioration ([3]; percent of patients): (28%)
- Energy: Improvement ([3]; percent of patients): (35%)
- Energy: Same ([3]; percent of patients): (36%)
- Irritability: Deterioration ([3]; percent of patients): (29%)
- Irritability: Improvement ([3]; percent of patients): (33%)
- Irritability: Same ([3]; percent of patients): (38%)
- Pain: Deterioration ([3]; percent of patients): (17%)
- Pain: Improvement ([3]; percent of patients): (50%)
- Pain: Same ([3]; percent of patients): (33%)
- Shake/tremor: Deterioration ([3]; percent of patients): (25%)
- Shake/tremor: Improvement ([3]; percent of patients): (41%)
- Shake/tremor: Same ([3]; percent of patients): (34%)
- Sleep: Deterioration ([3]; percent of patients): (16%)
- Sleep: Improvement ([3]; percent of patients): (47%)
- Sleep: Same ([3]; percent of patients): (38%)
- Spasms: Deterioration ([3]; percent of patients): (22%)
- Spasms: Improvement ([3]; percent of patients): (49%)
- Spasms: Same ([3]; percent of patients): (29%)
- Spasticity: Deterioration ([3]; percent of patients): (27%)
- Spasticity: Improvement ([3]; percent of patients): (51%)
- Spasticity: Same ([3]; percent of patients): (23%)
- Tiredness: Deterioration ([3]; percent of patients): (48%)
- Tiredness: Improvement ([3]; percent of patients): (22%)
- Tiredness: Same ([3]; percent of patients): (29%)
- Reduction of median time taken to walk 10 meters [4]: 12%
- Incidences of MS relapse by comparison with placebo ([5]; in words): greatly reduced
- Adverse event: Blocked/insertion of suprapubic catheter ([5]; number of events reported): 0
- Adverse event: Constipation ([5]; number of events reported): 0
- Adverse event: Grand mal seizure ([5]; number of events reported): 0
- Adverse event: MS relapse or possible relapse ([5]; number of events reported): 1
- Adverse event: Other ([5]; number of events reported): 11
- Adverse event: Pneumonia ([5]; number of events reported): 2
- Adverse event: Urinary tract infection ([5]; number of events reported): 3
